In patent US6514968B1, “Aminoalkoxy carbazoles for the treatment of cns diseases” (Pharmacia & Upjohn Company, priority 1999, dated 2003):
pKi: −log10 of the molar value.

Target: T1, cloned human 5-HT6 receptor (Homo sapiens, UniProt P50406)
T1 construct: host or cells: HeLa cells (G-418 selection), membrane preparation
Experiment: 5-HT6 Receptor Binding Assay
Conditions: [3H]-lysergic acid diethylamide (LSD) radioligand, membranes of Hela cells containing the cloned human 5-HT6 receptor, SPA beads; estimated IC50 converted to Ki by Cheng-Prusoff
Description: 5-HT6 Receptor Binding Assay
Growth of Cells and Membrane Preparation
Hela cells containing the cloned human 5-HT6 receptor were acquired from Dr. David R. Sibley's laboratory in National Institute of Health (see Sibley, D. R., J. Neurochemistry, 66, 47-56, 1996). Cells were grown in high glucose Dulbecco's modified Eagle's medium, supplemented with L-glutamine, 0.5% sodium pyruvate, 0.3% penicillin-streptomycin, 0.025% G-418 and 5% Gibco fetal bovine serum and then were harvested, when confluent, in cold phosphate-buffered saline.
Harvested intact cells were washed once in cold phosphate-buffered saline. The cells were pelleted and resuspended in 100 ml of cold 50 mM Tris, 5 mM EDTA and 5 mM EGTA, pH 7.4. Homogenization was with a Vir Tishear generator, 4 cycles for 30 seconds each at setting 50. The homogenized cells were centrifuged at 700 RPM (1000×g) for 10 minutes and the supernatant was removed. The pellet was resuspended in 100 ml of the above buffer and rehomogenized for 2 cycles. The rehomogenized cells were then centrifuged at 700 RPM (1000×g) for 10 minutes and the supernatant was removed. The combined supernatant (200ml) was centrifuged at 23,000 RPM (80,000×g) for 1 hour in a Beckman Rotor (42.1 Ti). The membrane pellet was resupended in 50-8-ml of assay buffer containing HEPES 20 mM, MgCl2 10 mM, NaCl 150 mM, EDTA 1 mM, pH 7.4 and stored frozen in aliqouts at −70° C.
The radioligand binding assay used [^3H]-lysergic acid diethylamide (LSD). The assay was carried out in Wallac 96-well sample plates by the addition of 11 μl of the test sample at the appropriate dilution (the assay employed 11 serial concentrations of samples run in duplicate), 11 μl of radioligand, and 178 μl of a washed mixture of WGA-coated SPA beads and membranes in binding buffer. The plates were shaken for about 5 minutes and then incubated at room temperature for 1 hour. The plates were then loaded into counting cassettes and counted in a Wallac MicroBeta Trilux scintillation counter.
Binding Constant (Ki) Determination
Eleven serial dilutions of test compounds were distributed to assay plates using the PE/Cetus Pro/Pette pipetter. These dilutions were, followed by radioligand and the bead-membrane mixture prepared as described above. The specifically bound cpm obtained were fit to a one-site binding model using GraphPad Prism ver. 2.0. Estimated IC50 values were converted to Ki values using the Cheng-Prusoff equation (Cheng, Y. C. et al., Biochem. Pharmacol., 22, 3099-108, 1973).

T1 sequence (P50406 whole entry): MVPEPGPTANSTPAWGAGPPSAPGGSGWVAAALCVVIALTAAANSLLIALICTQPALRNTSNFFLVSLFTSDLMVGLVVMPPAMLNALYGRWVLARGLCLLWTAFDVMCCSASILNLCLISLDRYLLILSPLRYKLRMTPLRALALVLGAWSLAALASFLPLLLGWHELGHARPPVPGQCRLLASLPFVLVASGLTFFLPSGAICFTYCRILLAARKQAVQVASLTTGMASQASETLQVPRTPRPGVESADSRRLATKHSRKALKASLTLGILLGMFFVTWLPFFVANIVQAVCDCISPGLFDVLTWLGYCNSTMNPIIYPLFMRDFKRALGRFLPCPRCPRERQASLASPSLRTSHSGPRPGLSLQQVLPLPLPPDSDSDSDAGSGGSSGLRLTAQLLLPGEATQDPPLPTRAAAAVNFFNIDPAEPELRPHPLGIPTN

Row | Structure (SMILES) | pKi
1 | OCCN1CCN(CCOc2cccc3c2c2ccccc2n3Cc2ccccc2)CC1 [Example 9, 2-(4-{2-[(9-benzyl-9H-carbazol-4-yl)oxy]ethyl}-1-piperazinyl)-1-ethanol] | 7.21
2 | O=CNCCN1CCN(CCOc2cccc3c2c2ccccc2n3Cc2ccccc2)CC1 [Example 27, 2-(4-{2-[(9-benzyl-9H-carbazol-4-yl)oxy]ethyl}-1-piperazinyl)ethylformamide] | 6.86
3 | c1ccc(Cn2c3ccccc3c3c(OCCNCc4nc5ccccc5[nH]4)cccc32)cc1 [Example 28, N-(1H-benzimidazol-2-ylmethyl)-2-[(9-benzyl-9H-carbazol-4-yl)oxy]-1-ethanamine] | 7.14
4 | c1ccc(Cn2c3ccccc3c3c(OCCNCc4ccccn4)cccc32)cc1 [Example 6, N-{2-[(9-Benzyl-9H-carbazol-4-yl)oxy]ethyl}-N-(2-pyridinylmethyl)amine] | 7.16
5 | O[C@H]1CCCC[C@@H]1NCCOc1cccc2c1c1ccccc1n2Cc1ccccc1 [Example 24, (1S,2S)-2-({2-[(9-benzyl-9H-carbazol-4-yl)oxy]ethyl}amino)cyclohexanol] | 7.07
6 | c1ccc(Cn2c3ccccc3c3c(OCCN4CCOCC4)cccc32)cc1 [Example 8, 9-benzyl-4-[2-(4-morpholinyl)ethoxy]-9H-carbazole] | 6.40
7 | Cc1nc(Cn2c3ccccc3c3c(OCCN)cccc32)cs1 [Example 51, 2-({9-[(2-Methyl-1,3-thiazol-4-yl)methyl]-9H-carbazol-4-yl}oxy)ethylamine] | 6.95
8 | CCN(CC)CCOc1cccc2c1c1cc(C)ccc1n2Cc1ccc(F)cc1 [Example 48, N,N-Diethyl-N-(2-{[9-(4-fluorobenzyl)-6-methyl-9H-carbazol-4-yl]oxy}ethyl)amine] | 6.91
9 | OCCOCCNCCOc1cccc2c1c1ccccc1n2Cc1ccccc1 [Example 23, 2-[2-({2-[(9-benzyl-9H-carbazol-4-yl)oxy]ethyl}amino)ethoxy]-1-ethanol] | 7.49
10 | CN1CCN(CCOc2cccc3c2c2ccccc2n3Cc2ccccc2)CC1 [Example 30, 9-benzyl-4-[2-(4-methyl-1-piperazinyl)ethoxy]-9H-carbazole] | 7.92
11 | CCOC(=O)CCNCCOc1cccc2c1c1ccccc1n2Cc1ccccc1 [Example 25, ethyl 3-({2-[(9-benzyl-9H-carbazol-4-yl)oxy]ethyl}amino)propanoate] | 7.40
12 | CCN(CC)CCOc1cccc2c1c1cccc(C)c1n2Cc1ccccc1 [Example 4, N-{2-[(9-Benzyl-8-methyl-9H-carbazol-4-yl)oxy]ethyl}-N,N-diethylamine] | 7.74
13 | c1ccc(Cn2c3ccccc3c3c(OCCNCC4CCCCC4)cccc32)cc1 [Example 19, 2-[(9-benzyl-9H-carbazol-4-yl)oxy]-N-(cyclohexylmethyl)-1-ethanamine] | 6.51
14 | CCCN(CCC)CCOc1cccc2c1c1ccccc1n2Cc1ccccc1 [Example 15, N-{2-[(9-benzyl-9H-carbazol-4-yl)oxy]ethyl}-N-propyl-1-propanamine] | 6.40
15 | c1ccc(Cn2c3ccccc3c3c(OCCNCCCN4CCOCC4)cccc32)cc1 [Example 12] | 6.74
16 | Fc1ccc(CCNCCOc2cccc3c2c2ccccc2n3Cc2ccccc2)cc1 [Example 22, 2-[(9-benzyl-9H-carbazol-4-yl)oxy]-N-(4-fluorophenethyl)-1-ethanamine] | 7.09
17 | OC1CCN(CCOc2cccc3c2c2ccccc2n3Cc2ccccc2)CC1 [Example 29, 1-{2-[(9-benzyl-9H-carbazol-4-yl)oxy]ethyl}-4-piperidinol] | 7.96
18 | CCN(CC)CCOc1cccc2c1c1cc(C)ccc1n2Cc1ccccc1 [Example 45, N-{2-[(9-Benzyl-6-methyl-9H-carbazol-4-yl)oxy]ethyl}-N,N-diethylamine] | 8.18
19 | CCN(CC)CCOc1cccc2c1c1cccc(C)c1n2Cc1ccc(F)cc1 [Example 5, N,N-Diethyl-N-(2-{[9-(4-fluorobenzyl)-8-methyl-9H-carbazol-4-yl]oxy}ethyl)amine] | 7.42
20 | OCCCCCNCCOc1cccc2c1c1ccccc1n2Cc1ccccc1 [Example 13, 5-({2-[(9-benzyl-9H-carbazol-4-yl)oxy]ethyl}amino)-1-pentanol] | 7.37

The remaining lines, values ahead:

Row | pKi | Structure (SMILES)
21 | 7.68 | c1ccc(Cn2c3ccccc3c3c(OCCNC4CC4)cccc32)cc1 [Example 31, N-{2-[(9-benzyl-9H-carbazol-4-yl)oxy]ethyl}-N-cyclopropylamine]
22 | 6.79 | CC(C)(CO)NCCOc1cccc2c1c1ccccc1n2Cc1ccccc1 [Example 17, 2-({2-[(9-benzyl-9H-carbazol-4-yl)oxy]ethyl}amino)-2-methyl-1-propanol]
23 | 7.64 | C=CCNCCOc1cccc2c1c1ccccc1n2Cc1ccccc1 [Example 11, N-{2-[(9-benzyl-9H-carbazol-4-yl)oxy]ethyl}-2-propen-1-amine]
24 | 7.40 | CCCNCCOc1cccc2c1c1ccccc1n2Cc1ccccc1 [Example 14, N-{2-[(9-benzyl-9H-carbazol-4-yl)oxy]ethyl}-1-propanamine]
25 | 6.96 | COc1cccc(Cn2c3ccccc3c3c(OCCN)cccc32)c1 [Example 57, 2-{[9-(3-Methoxybenzyl)-9H-carbazol-4-yl]oxy}ethylamine]
26 | 7.33 | c1ccc(Cn2c3ccccc3c3c(OCCNC4CCC4)cccc32)cc1 [Example 26, N-{2-[(9-benzyl-9H-carbazol-4-yl)oxy]ethyl}cyclobutanamine]
27 | 8.16 | c1ccc(Cn2c3ccccc3c3c(OCCN4CCCC4)cccc32)cc1 [Example 38, 9-Benzyl-4-[2-(1-pyrrolidinyl)ethoxy]-9H-carbazole]
28 | 7.96 | CCNCCOc1cccc2c1c1ccccc1n2Cc1ccccc1 [Example 37, 2-[(9-benzyl-9H-carbazol-4-yl)oxy]-N-ethyl-1-ethanamine]
29 | 7.62 | NCCOc1c(Cl)ccc2c1c1ccccc1n2Cc1ccccc1 [Example 52, 2-[(9-Benzyl-3-chloro-9H-carbazol-4-yl)oxy]ethylamine]
30 | 6.92 | NCCOc1cccc2c1c1ccccc1n2Cc1ccccc1F [Example 56, 2-{[9-(2-Fluorobenzyl)-9H-carbazol-4-yl]oxy}ethylamine]
31 | 7.57 | COc1ccc2c(c1)c1c(OCCN)cccc1n2Cc1ccccc1 [Example 61, 2-[(9-Benzyl-6-methoxy-9H-carbazol-4-yl)oxy]ethylamine]
32 | 6.45 | Clc1ccc(CCNCCOc2cccc3c2c2ccccc2n3Cc2ccccc2)cc1 [Example 18, 2-[(9-benzyl-9H-carbazol-4-yl)oxy]-N-(4-chlorophenethyl)-1-ethanamine]
33 | 7.22 | COc1ccc2c3c(OCCN)cccc3n(Cc3ccccc3)c2c1 [Example 62, 2-[(9-Benzyl-7-methoxy-9H-carbazol-4-yl)oxy]ethylamine]
34 | 6.86 | NCCOc1cccc2c1c1ccccc1n2Cc1csc2ccc(Cl)cc12 [Example 50, 2-({9-[(5-Chloro-1-benzothiophen-3-yl)methyl]-9H-carbazol-4-yl}oxy)ethylamine]
35 | 7.00 | NCCOc1cccc2c1c1ccccc1n2Cc1cccc(F)c1 [Example 54, 2-{[9-(3-Fluorobenzyl)-9H-carbazol-4-yl]oxy}ethylamine]
36 | 6.90 | NCCOc1cccc2c1c1ccccc1n2Cc1cccc(Br)c1 [Example 53, 2-{[9-(3-Bromobenzyl)-9H-carbazol-4-yl]oxy}ethylamine]
37 | 6.32 | Cc1ccc(Cn2c3ccccc3c3c(OCCN)cccc32)cc1 [Example 55, 2-{[9-(4-Methylbenzyl)-9H-carbazol-4-yl]oxy}ethylamine]
38 | 7.70 | Cc1cccc(Cn2c3ccccc3c3c(OCCN)cccc32)c1 [Example 59, 2-{[9-(3-Methylbenzyl)-9H-carbazol-4-yl]oxy}ethylamine]
39 | 7.70 | OCCCNCCOc1cccc2c1c1ccccc1n2Cc1ccccc1 [Example 10, 3-({2-[(9-benzyl-9H-carbazol-4-yl)oxy]ethyl}amino)-1-propanol]
40 | 7.06 | c1ccc(Cn2c3ccccc3c3c(OCCN4CCNCC4)cccc32)cc1 [Example 40, 9-Benzyl-4-[2-(1-piperazinyl)ethoxy]-9H-carbazole]
41 | 7.64 | NCCOc1cccc2c1c1ccccc1n2Cc1ccccc1 [Example 35, 2-[(9-Benzyl-9H-carbazol-4-yl)oxy]ethylamine]
42 | 7.14 | CCC(O)CNCCOc1cccc2c1c1ccccc1n2Cc1ccccc1 (stereo not drawn) [Example 21, 1-({2-[(9-benzyl-9H-carbazol-4-yl)oxy]ethyl}amino)-2-butanol]
